In patent publication US12590072B2, “Thyromimetics” (Autobahn Therapeutics, Inc., priority 2020, dated 2026):

Tests used:
[1] = target: T1, TRα (TR-receptor hybrid with yeast Gal4 DBD) (Homo sapiens, UniProt P10827); assay: Thyroid-hormone reporter-gene assay, TRα; assay type: cell-based; conditions: HEK293-derived reporter cells, firefly luciferase, 24 hr incubation
T1 construct: expressed in transfected cells; host or cells: HEK293
T1 sequence (P10827 1-410 isoform P10827-2): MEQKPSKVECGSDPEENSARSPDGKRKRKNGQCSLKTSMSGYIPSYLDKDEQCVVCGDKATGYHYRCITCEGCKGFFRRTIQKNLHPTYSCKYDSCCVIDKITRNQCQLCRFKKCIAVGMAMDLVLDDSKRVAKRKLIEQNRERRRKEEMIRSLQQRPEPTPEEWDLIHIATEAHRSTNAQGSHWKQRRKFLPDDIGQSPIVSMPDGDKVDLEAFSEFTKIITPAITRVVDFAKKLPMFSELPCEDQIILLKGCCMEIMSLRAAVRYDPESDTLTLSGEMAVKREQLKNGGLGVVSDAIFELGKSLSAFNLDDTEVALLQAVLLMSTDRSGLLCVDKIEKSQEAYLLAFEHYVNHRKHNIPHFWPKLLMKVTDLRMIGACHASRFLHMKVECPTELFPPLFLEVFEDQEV
Method: (§1) Compounds were tested for thyroid-hormone receptor activity using TR reporter-gene assays. Reporter cells used in the assays express a TR-receptor hybrid (either TRα or TRβ) in which the native N-terminal DNA binding domain (DBD) has been replaced with that of the yeast Gal4 DBD. The reporter gene, firefly luciferase, is functionally linked to the Gal4 upstream activation sequence (UAS). Both cell lines were derived from human embryonic kidney (HEK293). • Step 1: A suspension of reporter cells was prepared in cell recovery medium containing 10% charcoal-stripped FBS, and dispensed into assay plates. […] These intermediate stocks were subsequently diluted directly into compound screening medium containing 10% charcoal-stripped FBS to generate “2×-concentration” treatment media (containing 0.2, 0.4 or 0.8% DMSO). • Step 3: At the end of the pre-incubation period, culture media were discarded from the assay plates, and all wells received 100 μl of compound screening medium. 100 μl of each of the previously prepared “2×-concentration” treatment media were dispensed into duplicate assay wells, thereby achieving the desired final treatment concentrations. The final concentration of DMSO in all assay wells was 0.1, 0.2 or 0.4%. Assay plates were incubated for 24 hr in a cell culture incubator (37° C./5% CO2/85% humidity). • Step 4: At the 24 h assay endpoint, treatment media were discarded and 100 μl/well of luciferase detection reagent was added. Relative luminometer units (RLUs) were quantified from each assay well.

[2] = target: T2, TRβ (TR-receptor hybrid with yeast Gal4 DBD) (Homo sapiens, UniProt P10828); assay: Thyroid-hormone reporter-gene assay, TRβ; assay type: cell-based; conditions: for EC50: HEK293-derived reporter cells, firefly luciferase, 24 hr incubation; for T3-SI, selectivity index EC50 (TRα)/EC50 (TRβ): calculated from the reporter-gene EC50 values
T2 construct: expressed in transfected cells; host or cells: HEK293
T2 sequence (P10828 217-461 limits assumed): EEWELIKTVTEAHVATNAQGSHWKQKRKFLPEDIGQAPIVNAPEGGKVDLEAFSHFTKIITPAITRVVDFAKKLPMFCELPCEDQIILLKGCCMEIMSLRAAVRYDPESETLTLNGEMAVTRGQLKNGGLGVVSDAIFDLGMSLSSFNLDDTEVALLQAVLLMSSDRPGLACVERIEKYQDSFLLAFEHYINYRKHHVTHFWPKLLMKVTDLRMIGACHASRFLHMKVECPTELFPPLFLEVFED
Method: as §1

Row | EC50 [1] | EC50 [2] | T3-SI, selectivity index EC50 (TRα)/EC50 (TRβ) [2] | Structure (SMILES)
1 | > 1000 nM | 100 to 1000 nM | +++ (T3-SI>30×) | N#Cc1nn(-c2cc(Cl)c(Cc3ccc(O)c(-c4cccc(OC(F)F)c4)c3)c(Cl)c2)c(=O)nc1O [Compound 3, 2-(3,5-dichloro-4-((3′-(difluoromethoxy)-6-hydroxy-[1,1′-biphenyl]-3-yl)methyl)phenyl)-5-hydroxy-3-oxo-2,3-dihydro-1,2,4-triazine-6-carbonitrile]
2 | 100 to 1000 nM | 100 to 1000 nM | ++ (3×<T3-SI≤30×) | CC(C)c1cc(Cc2c(Cl)cc(-n3nc(C#N)c(O)nc3=O)c(F)c2Cl)ccc1O [Compound 6, 2-(3,5-dichloro-2-fluoro-4-(4-hydroxy-3-isopropylbenzyl)phenyl)-5-hydroxy-3-oxo-2,3-dihydro-1,2,4-triazine-6-carbonitrile]
3 | 10 to 100 nM | < 10 nM | ++ (3×<T3-SI≤30×) | CC(C)c1cc(Cc2c(Cl)cc(-n3nc(C#N)c(O)nc3=O)cc2C(C)C)ccc1O [Compound 5, 2-(3-chloro-4-(4-hydroxy-3-isopropylbenzyl)-5-isopropylphenyl)-5-hydroxy-3-oxo-2,3-dihydro-1,2,4-triazine-6-carbonitrile]
4 | 10 to 100 nM | 10 to 100 nM | ++ (3×<T3-SI≤30×) | CC(C)c1c(O)ccc(Cc2c(Cl)cc(-n3nc(C#N)c(O)nc3=O)cc2Cl)c1F [Compound 2, 2-(3,5-dichloro-4-(2-fluoro-4-hydroxy-3-isopropylbenzyl)phenyl)-5-hydroxy-3-oxo-2,3-dihydro-1,2,4-triazine-6-carbonitrile]
5 | > 1000 nM | 100 to 1000 nM | ++ (3×<T3-SI≤30×) | N#Cc1nn(-c2cc(Cl)c(Cc3ccc(O)c(Cc4ccc(F)cc4)c3)c(Cl)c2)c(=O)nc1O [Compound 4, 2-(3,5-dichloro-4-(3-(4-fluorobenzyl)-4-hydroxybenzyl)phenyl)-5-hydroxy-3-oxo-2,3-dihydro-1,2,4-triazine-6-carbonitrile]
6 | < 10 nM | < 10 nM | ++ (3×<T3-SI≤30×) | O=c1nc(O)cnn1-c1cc(Cl)c(Cc2ccc(O)c(-c3cccc(OC(F)F)c3)c2)c(Cl)c1 [Compound 10, 2-(3,5-dichloro-4-((3′-(difluoromethoxy)-6-hydroxy-[1,1′-biphenyl]-3-yl)methyl)phenyl)-5-hydroxy-1,2,4-triazin-3(2H)-one]
7 | 100 to 1000 nM | 10 to 100 nM | ++ (3×<T3-SI≤30×) | CC(C)c1cc(Cc2c(Cl)cc(-c3cc(O)no3)cc2Cl)ccc1O [Compound 9, 5-(3,5-dichloro-4-(4-hydroxy-3-isopropylbenzyl)phenyl)isoxazol-3-ol]
8 | 100 to 1000 nM | 10 to 100 nM | +++ (T3-SI>30×) | CC(C)c1cc(Cc2c(Cl)cc(-n3nc(C#N)c(O)nc3=O)cc2Cl)ccc1O [Compound 1, 2-(3,5-dichloro-4-(4-hydroxy-3-isopropylbenzyl)phenyl)-5-hydroxy-3-oxo-2,3-dihydro-1,2,4-triazine-6-carbonitrile]
9 | > 1000 nM | > 1000 nM | – | CC(C)c1c(O)ccc(Cc2c(Cl)cc(-c3ccc(F)c(O)c3F)cc2Cl)c1F [Compound 8, 3′,5′-dichloro-2,4-difluoro-4′-(2-fluoro-4-hydroxy-3-isopropylbenzyl)-[1,1′-biphenyl]-3-ol]
10 | > 1000 nM | 100 to 1000 nM | ++ (3×<T3-SI≤30×) | CC(C)c1c(O)ccc(Cc2c(Cl)cc(-c3cc(F)c(O)c(F)c3)cc2Cl)c1F [Compound 7, 3′,5′-dichloro-3,5-difluoro-4′-(2-fluoro-4-hydroxy-3-isopropylbenzyl)-[1,1′-biphenyl]-4-ol]
